Laboratory results from patent US8840886B2, “Method of treating cancer with DLL4 antagonist and chemotherapeutic agent” (Regeneron Pharmaceuticals, Inc., priority 2009, dated 2014).

Experiments:
Assay type in all cases: in vivo, mouse
[1] = test system: human HCT116 tumor cells (CRC); test: HCT116 colorectal xenograft tumor growth, REGN421 with 5-FU (Example 5)
Protocol: The effect of anti-Dll4 Ab (REGN421) in combination with 5-FU on tumor growth was evaluated on tumors implanted in humanized Dll4 SCID mice. Each mouse was implanted subcutaneously (sc) with 5×10^6 human HCT116 tumor cells (CRC). After the tumors were established in the mice (tumor size of ˜150 mm^3, 22 days after implantation), tumors were measured and randomized. The mice were then treated with hFc, REGN421, 5-FU or combination of REGN421 and 5-FU. A total of 30 mice were divided into 6 groups (n=5 per cohort). The first group was treated sc with hFc at 2 mg/kg; the second group was treated sc with REGN421 at 2 mg/kg; the third and fourth groups were treated ip with 5-FU at 15 and 25 mg/kg, respectively; the fifth group was treated sc with REGN421 at 2 mg/kg and ip with 5-FU at 15 mg/kg; and the sixth group was treated sc with REGN421 at 2 mg/kg and ip with 5-FU at 25 mg/kg. REGN421 was administered every 3-4 days starting on day 22 and mice received three doses total. 5-FU was administered every 3-4 days starting on day 22 and mice received three doses total.
(§1) To assess the effects of REGN421 and 5-FU as single agents or in combination, the changes in tumor size (volume) were measured, beginning three days before the initial REGN421 treatment, and then on the day of each agent treatment (days 22, 26, 29) and thereafter every 3-4 days until tumors reach ˜600 mm^3 in size. In vivo tumor size is calculated using the formula (length×width^2)/2 (FIG. 3 and Table 5).

human HCT116 tumor cells = test: HCT116 xenograft tumor growth, REGN421 with irinotecan (Example 6)
Protocol: Each mouse was implanted subcutaneously (sc) with 5×10^6 human HCT116 tumor cells. After the tumors were established in the mice (tumor size of ˜150 mm^3, 15 days after implantation), tumors were measured and randomized. The mice were then treated with hFc, REGN421, irinotecan or combination of REGN421 and irinotecan. A total of 30 mice were divided into 6 groups (n=5 per cohort). The first group was treated sc with hFc at 2 mg/kg; the second group was treated sc with REGN421 at 2 mg/kg; the third and fourth groups were treated ip with irinotecan at 7.5 and 25 mg/kg, respectively; the fifth group was treated sc with REGN421 at 2 mg/kg and ip with irinotecan at 7.5 mg/kg; and the sixth group was treated sc with REGN421 at 2 mg/kg and ip with irinotecan at 25 mg/kg. REGN421 was administered every 3-4 days starting on day 15 and mice received three doses total. Irinotecan was administered every 3-4 days starting on day 15 and mice received three doses total.
as §1, with “irinotecan” for “5-FU”, “combination treatments,” for “combination,”, “are” for “were”, “starting” for “beginning”, “15, 19, 22)” for “22, 26, 29)”, “(length×width^2)/2.” for “(length×width^2)/2 (FIG. 3 and Table 5).”

[2] = test system: human MDA-MB-231 breast tumor cells; test: MDA-MB-231 breast tumor growth in SCID mice, REGN577 with docetaxel (Example 4); details: for reduction of tumor growth: at Day 63
Protocol: The effect of anti-Dll4 antibody in combination with docetaxel (TAXOTERE®, sanofi-aventis) on tumor growth was evaluated on tumors implanted in Severe Combined Immunodeficiency (SCID) mice. Each mouse was implanted ‘pseudo-orthotopically’ (subcutaneously into mammary gland #3) with 5×10^6 human MDA-MB-231 breast tumor cells with MATRIGEL™ (BD Biosciences lot #84540). After the tumors were established in the mice (tumor size of ˜150-200 mm^3, approximately 45 days after implantation), mice were treated with hFc, docetaxel, Dll4 antibody, or a combination of docetaxel plus Dll4 antibody. A total of 25 tumor-bearing […] mice were randomized into five groups (N=5 mice per group). The first group was treated subcutaneously with hFc (at 25 mg/kg) and intravenously (iv) with vehicle; the second group was treated with Dll4 antibody REGN577 sc at 5 mg/kg; the third group was treated with docetaxel iv at 4.5 mg/kg; the fourth group was treated with docetaxel iv at 6 mg/kg; the fifth group was treated with docetaxel iv at 6 mg/kg plus REGN577 sc at 5 mg/kg. Docetaxel and/or Dll4 antibody were administered on the same day. Animals were treated 2 times per week and received a total of 3 doses. Starting from the day of initial treatment, body weight and tumors were measured twice a week until the mice are euthanized. Mice were euthanized when tumors reached ˜600 mm^3 in size. Tumor size was calculated using the formula (length×width^2)/2.

[3] = test system: rat C6 tumor cells (glioblastoma cells); test: C6 glioblastoma tumor growth in SCID mice, REGN577 with docetaxel (Example 3)
Protocol: The effect of anti-Dll4 antibody in combination with docetaxel (TAXOTERE®) on tumor growth was evaluated on tumors implanted in Severe Combined Immunodeficiency (SCID) mice. Each mouse was implanted subcutaneously (sc) with 1×10^6 rat C6 tumor cells (glioblastoma cells). After the tumors were established (tumor size of ˜100-150 mm^3, approximately 13 days after implantation), the mice were treated with hFc, docetaxel, Dll4 antibody, or a combination of docetaxel plus Dll4 antibody. Since these mice expressed mouse Dll4, the Dll4 Ab used in this experiment was prepared in-house, based on the published sequence (WO 2007/143689), and designated as REGN 577. […] A total of 30 tumor-bearing male mice were randomized into six groups (N=5). […] Starting from the day of initial treatment, body weight and tumors were measured twice a week until the mice were euthanized when tumors reached ˜600 mm^3 in size. Tumor size was calculated using the formula, (length×width^2)/2.

[4] = test system: human VM-Cub1 tumor cells (bladder carcinoma cells); test: VM-Cub1 bladder carcinoma xenograft tumor growth, REGN421 with cisplatin (Example 1); details: for TGI: 4 doses, at day 32; for Euthanized: control cohort euthanized day 32; for TGD: time to 600 mm^3 vs control
Protocol: The effect of anti-Dll4 antibody (REGN421) in combination with cisplatin (platinol, cis-diamminedichloroplatinum) on tumor growth was evaluated on tumors implanted in Severe Combined Immunodeficiency (SCID) mice expressing a humanized Dll4 protein (humanized Dll4 SCID mice). The humanized Dll4 SCID mouse was made by replacing the entire extracellular domain of the mouse Dll4 gene with the corresponding extracellular region of the human Dll4 gene (7 kb) in embryonic stem (ES) cells. Homozygous hDll4 mice were generated and bred into SCID background.
Each mouse was implanted subcutaneously (sc) with 1×10^6 human VM-Cub1 tumor cells (bladder carcinoma cells) plus MATRIGEL™ (BD Biosciences, #354234). After the tumors were established in the mice (tumor size of 150-200 mm^3, approximately 14 days after implantation), tumors were measured, randomized and treated with hFc, REGN421, cisplatin, or combination of REGN421 and cisplatin. A total of 45 mice were divided into nine groups (n=5 per cohort). The first group was treated subcutaneously (sc) with hFc at 2 mg/kg; the second and third groups were treated sc with REGN421 at 0.5 and 2 mg/kg, respectively; the fourth and fifth groups were treated intraperitoneally (ip) with cisplatin at 0.5 and 2 mg/kg, respectively; the sixth group was treated sc with REGN421 at 0.5 mg/kg and ip with cisplatin at 0.5 mg/kg; the seventh group was treated sc with REGN421 at 0.5 mg/kg and ip with cisplatin at 2 mg/kg; the eighth group was treated sc with REGN421 at 2 mg/kg and ip with cisplatin at 0.5 mg/kg; and the ninth group was treated sc with REGN421 at 2 mg/kg and ip with cisplatin at 2 mg/kg. REGN421 was administered every 3-4 days starting on day 14 and mice received three doses total. Cisplatin was administered every 24 hours starting on day 14; mice received four doses total.
To assess the effects of REGN421 and cisplatin as single agents or in combination treatments, the changes in tumor size were recorded. Tumor growth was measured three days before the initial REGN421 treatment, on the day of each REGN421 treatment (days 14, 17 and 21) and thereafter every 3-4 days until tumors reached ˜600 mm^3 in size. In vivo tumor size was calculated using the formula (length×width^2)/2 (FIG. 1 and Table 1).
Tumor Growth Inhibition, TGI, was determined by calculating the difference in tumor size for treated (T) versus vehicle control (C) tumor at the day the control cohort was euthanized (i.e., at day 32); TGI=[1−(Tfinal−Tinitial)/(Cfinal−Cinitial)]×100.
Tumor growth delay, TGD, was assessed as the difference in days between treated (T) versus control (C) tumors when each cohort reached a specified tumor size. The predetermined tumor size for this experiment was 600 mm^3.

[5] = test system: human A549 tumor cells (non-small cell lung cancer); test: A549 NSCLC xenograft tumor growth, REGN421 with cisplatin (Example 2)
Protocol: The effect of REGN421 in combination with cisplatin on tumor growth was evaluated on tumors implanted in humanized Dll4 SCID mice, as described above. Each mouse was implanted subcutaneously (sc) with 5×10^6 human A549 tumor cells (non-small cell lung cancer or “NSCLC”). After the tumors were established in the mice (tumor size of 100-150 mm^3, approximately 29 days after implantation), tumors were measured, randomized and treated with hFc, REGN421, cisplatin or combination of REGN421 and cisplatin. A total of 36 mice were divided into 6 groups (n=6 per cohort). The first group was treated sc with hFc at 2 mg/kg; the second group was treated sc with REGN421 at 2 mg/kg; the third and fourth groups were treated ip with cisplatin at 2.5 and 4.5 mg/kg, respectively; the fifth group was treated sc with REGN421 at 2 mg/kg and ip with cisplatin at 2.5 mg/kg; and the sixth group was treated sc with REGN421 at 2 mg/kg and ip with cisplatin at 4.5 mg/kg. REGN421 was administered every 3-4 days starting on day 29 and mice received three doses total. Cisplatin was administered every 24 hours starting on day 29 and mice received two doses total.
To assess the effects of REGN421 and cisplatin as single agents or in combination we measured tumor size (volume), beginning three days before the initial REGN421 treatment, on the day of each agent treatment (days 29, 30, 33, 36) and thereafter every 3-4 days until tumors reached ˜600 mm^3 in size. In vivo tumor size was calculated using the formula (length×width^2)/2.

[6] = docetaxel 4.5 mg/kg iv (13.5 mg/kg total dose)
[7] = docetaxel 6 mg/kg iv (18 mg/kg total dose)

SMILES: O=c1[nH]cc(F)c(=O)[nH]1 [5-FU, 5-fluorouracil]
- TGD ([1]; 5-FU 15 mg/kg ip (45 mg/kg total dose)): 4 days
- TGD ([1]; 5-FU 25 mg/kg ip (75 mg/kg total dose)): 2 days

SMILES: CCc1c2c(nc3ccc(OC(=O)N4CCC(N5CCCCC5)CC4)cc13)-c1cc3c(c(=O)n1C2)COC(=O)[C@]3(O)CC [Irinotecan, irinotecan]
- TGD (human HCT116 tumor cells; irinotecan 7.5 mg/kg ip (22.5 mg/kg total dose)): 8 days
- TGD (human HCT116 tumor cells; irinotecan 25 mg/kg ip (75 mg/kg total dose)): 16 days

SMILES: CC(=O)O[C@@]12CO[C@@H]1C[C@H](O)[C@@]1(C)C(=O)[C@H](O)C3=C(C)[C@@H](OC(=O)[C@H](O)[C@@H](NC(=O)OC(C)(C)C)c4ccccc4)C[C@@](O)([C@@H](OC(=O)c4ccccc4)[C@H]21)C3(C)C [Docetaxel, docetaxel]
- TGD [2, 6]: 4 days
- reduction of tumor growth ([2]; docetaxel 4.5 mg/kg iv): 37%
- TGD [2, 7]: 4 days
- reduction of tumor growth ([2]; docetaxel 6 mg/kg iv): 52%
- TGD [3, 6]: 6 days
- TGD [3, 7]: 7 days

SMILES: N.N.[Cl][Pt][Cl] [Cisplatin, cis-diamminedichloroplatinum]
- TGI ([4]; cisplatin 0.5 mg/kg/dose ip): 60.7%
- TGI ([4]; cisplatin 0.5 mg/kg/dose ip, listed as cisplatin): 61%
- Euthanized ([4]; cisplatin 0.5 mg/kg/dose ip): 45 days
- TGD ([4]; cisplatin 0.5 mg/kg/dose ip): 13 days
- TGI ([4]; cisplatin 2 mg/kg/dose ip): 53.8%
- TGI ([4]; cisplatin 2 mg/kg/dose ip, listed as cisplatin): 54%
- Euthanized ([4]; cisplatin 2 mg/kg/dose ip): 41 days
- TGD ([4]; cisplatin 2 mg/kg/dose ip): 9 days
- TGD ([5]; cisplatin 2.5 mg/kg ip (5 mg/kg total dose)): 4 days
- TGD ([5]; cisplatin 4.5 mg/kg ip (9 mg/kg total dose)): 11 days
